Measurements taken from publication PMC6950245, “Identification and Characterization of ShSPI, a Kazal-Type Elastase Inhibitor from the Venom of Scolopendra Hainanum” (Toxins, 2019).
Where a SMILES comes first, the peptide text is derived from it. Bridges are numbered along the chain shown (N, C = ends).

The compounds below were run against T1, human neutrophil elastase (HNE) (Homo sapiens, UniProt P08246) (assay: Protease inhibition assay, human neutrophil elastase (chromogenic substrate, Dixon method)).
T1 construct: purchased Sigma-Aldrich E8140
T1 sequence (P08246 30-267): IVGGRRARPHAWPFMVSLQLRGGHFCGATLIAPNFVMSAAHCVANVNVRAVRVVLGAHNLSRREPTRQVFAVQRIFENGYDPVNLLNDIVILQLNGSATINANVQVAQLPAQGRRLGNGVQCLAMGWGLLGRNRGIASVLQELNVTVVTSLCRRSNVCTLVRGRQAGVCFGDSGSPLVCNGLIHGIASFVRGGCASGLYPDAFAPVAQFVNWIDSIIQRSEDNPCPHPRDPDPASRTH
Format: biochemical
From the text: Human neutrophils elastase (HNE, E8140), porcine pancreatic elastase (PPE, E0127), cathepsin G (CG, C4428), human trypsin (T6424), α-chymotrypsin from human pancreas (C8946), and thrombin from human plasma (T4393) were all purchased from Sigma-Aldrich (USA). Factor Xa (FXa, HFXa 1011) and Factor XIIa (FXIIa, HFXIIa 1212a) were from Enzyme Research Laboratories (South Bend, IN, USA). Kallikrein from human plasma (420307) was from Merck Millipore (Billerica, MA, USA).
Substrate for HNE and PPE (MeOSuc-Ala-Ala-Pro-Val-pNA, 324696) was purchased from Merck Millipore (USA). Substrates for CG (Succinyl-Ala-Ala-Pro-Phe-pNA, 573462), trypsin (Nalpha-Benzoyl-L-arginine 4-nitroanilide hydrochloride, B3133), FXa (CH3OCO-D-CHA-Gly-Arg-pNA-AcOH, F3301), chymotrypsin (N-Succinyl-Gly-Gly-Phe-pNA, S1899), thrombin (β-Ala-Gly-Arg-pNA diacetate, T3068), and kallikrein (Z-Phe-Arg 7-amido-4-methylcoumarin hydrochloride, C9521) were purchased from Sigma-Aldrich (USA).
As mentioned in our previous study, experiments for protease inhibitory activity were assayed in buffer (0.05 M Tris-HCl, pH 7.8) at 37 °C. […] At the end of the incubation, the reaction was initiated by the addition of the exclusive substrate solution and monitored by recording the absorbance at 405 nm every 30 s for 30 min. Enzyme activity in each well was calculated based on the initial slope of the reaction curve, and percentage of the initial slope of the uninhibited reaction was expressed. The inhibition constant Ki value was determined according to the Dixon method.

Structure (SMILES)	Ki [µM]
CC[C@H](C)[C@@H]1NC(=O)[C@H](C)NC(=O)[C@@H]2CCCN2C(=O)[C@@H]2CSSC[C@H](NC(=O)[C@H](CO)NC(=O)[C@H](CC(N)=O)NC(=O)[C@H](CO)NC(=O)[C@H](Cc3ccc(O)cc3)NC(=O)[C@H](CCSC)NC(=O)[C@H](CCCNC(=N)N)NC(=O)CNC(=O)[C@H](Cc3ccccc3)NC(=O)[C@H](CCC(=O)O)NC(=O)[C@H](CC(=O)O)NC(=O)[C@H](Cc3ccccc3)NC(=O)[C@H](C(C)C)NC(=O)[C@@H]3CCCN3C(=O)[C@H](CCC(N)=O)NC(=O)[C@H](Cc3ccc(O)cc3)NC1=O)C(=O)N[C@@H](C)C(=O)N[C@@H](CCSC)C(=O)N[C@@H](CCC(N)=O)C(=O)N[C@@H](CCCNC(=N)N)C(=O)N[C@@H](C)C(=O)N[C@@H](CCCNC(=N)N)C(=O)N[C@H](C(=O)N[C@@H](CC(C)C)C(=O)N[C@@H](CCCNC(=N)N)C(=O)NCC(=O)O)CSSC[C@H](N)C(=O)N1CCC[C@H]1C(=O)N[C@@H](CCC(N)=O)C(=O)N[C@@H](C(C)C)C(=O)N2 [E25A] (H-CPQVCPAIYQPVFDEFGRMYSNSCAMQRARCLRG-OH; disulfide 1-31, 5-24)	> 1000
CC[C@H](C)[C@@H]1NC(=O)[C@H](C)NC(=O)[C@H](C)NC(=O)[C@@H]2CSSC[C@H](NC(=O)[C@H](CO)NC(=O)[C@H](CC(N)=O)NC(=O)[C@H](CO)NC(=O)[C@H](Cc3ccc(O)cc3)NC(=O)[C@H](CCSC)NC(=O)[C@H](CCCNC(=N)N)NC(=O)CNC(=O)[C@H](Cc3ccccc3)NC(=O)[C@H](CCC(=O)O)NC(=O)[C@H](CC(=O)O)NC(=O)[C@H](Cc3ccccc3)NC(=O)[C@H](C(C)C)NC(=O)[C@@H]3CCCN3C(=O)[C@H](CCC(N)=O)NC(=O)[C@H](Cc3ccc(O)cc3)NC1=O)C(=O)N[C@@H](CCC(=O)O)C(=O)N[C@@H](CCSC)C(=O)N[C@@H](CCC(N)=O)C(=O)N[C@@H](CCCNC(=N)N)C(=O)N[C@@H](C)C(=O)N[C@@H](CCCNC(=N)N)C(=O)N[C@H](C(=O)N[C@@H](CC(C)C)C(=O)N[C@@H](CCCNC(=N)N)C(=O)NCC(=O)O)CSSC[C@H](N)C(=O)N1CCC[C@H]1C(=O)N[C@@H](CCC(N)=O)C(=O)N[C@@H](C(C)C)C(=O)N2 [P6A] (H-CPQVCAAIYQPVFDEFGRMYSNSCEMQRARCLRG-OH; disulfide 1-31, 5-24)	0.105
CC[C@H](C)[C@@H]1NC(=O)[C@H](C)NC(=O)[C@@H]2CCCN2C(=O)[C@@H]2CSSC[C@H](NC(=O)[C@H](CO)NC(=O)[C@H](CC(N)=O)NC(=O)[C@H](CO)NC(=O)[C@H](Cc3ccc(O)cc3)NC(=O)[C@H](CCSC)NC(=O)[C@H](CCCNC(=N)N)NC(=O)CNC(=O)[C@H](Cc3ccccc3)NC(=O)[C@H](CCC(=O)O)NC(=O)[C@H](CC(=O)O)NC(=O)[C@H](Cc3ccccc3)NC(=O)[C@H](C(C)C)NC(=O)[C@@H]3CCCN3C(=O)[C@H](CCC(N)=O)NC(=O)[C@H](Cc3ccc(O)cc3)NC1=O)C(=O)N[C@@H](CCC(=O)O)C(=O)N[C@@H](CCSC)C(=O)N[C@@H](CCC(N)=O)C(=O)N[C@@H](CCCNC(=N)N)C(=O)N[C@@H](C)C(=O)N[C@@H](CCCNC(=N)N)C(=O)N[C@H](C(=O)N[C@@H](CC(C)C)C(=O)N[C@@H](CCCNC(=N)N)C(=O)NCC(=O)O)CSSC[C@H](N)C(=O)N1CCC[C@H]1C(=O)N[C@@H](CCC(N)=O)C(=O)N[C@@H](C)C(=O)N2 [V4A] (H-CPQACPAIYQPVFDEFGRMYSNSCEMQRARCLRG-OH; disulfide 1-31, 5-24)	0.0132
CC[C@H](C)[C@@H]1NC(=O)[C@H](C)NC(=O)[C@@H]2CCCN2C(=O)[C@@H]2CSSC[C@H](NC(=O)[C@H](CO)NC(=O)[C@H](CC(N)=O)NC(=O)[C@H](CO)NC(=O)[C@H](Cc3ccc(O)cc3)NC(=O)[C@H](CCSC)NC(=O)[C@H](CCCNC(=N)N)NC(=O)CNC(=O)[C@H](Cc3ccccc3)NC(=O)[C@H](CCC(=O)O)NC(=O)[C@H](CC(=O)O)NC(=O)[C@H](Cc3ccccc3)NC(=O)[C@H](C(C)C)NC(=O)[C@@H]3CCCN3C(=O)[C@H](CCC(N)=O)NC(=O)[C@H](Cc3ccc(O)cc3)NC1=O)C(=O)N[C@@H](CCC(=O)O)C(=O)N[C@@H](CCSC)C(=O)N[C@@H](CCC(N)=O)C(=O)N[C@@H](CCCNC(=N)N)C(=O)N[C@@H](C)C(=O)N[C@@H](CCCNC(=N)N)C(=O)N[C@H](C(=O)N[C@@H](CC(C)C)C(=O)N[C@@H](CCCNC(=N)N)C(=O)NCC(=O)O)CSSC[C@H](N)C(=O)N1CCC[C@H]1C(=O)N[C@@H](C)C(=O)N[C@@H](C(C)C)C(=O)N2 [Q3A] (H-CPAVCPAIYQPVFDEFGRMYSNSCEMQRARCLRG-OH; disulfide 1-31, 5-24)	0.114
CC[C@H](C)[C@@H]1NC(=O)[C@H](C)NC(=O)[C@@H]2CCCN2C(=O)[C@@H]2CSSC[C@H](NC(=O)[C@H](CO)NC(=O)[C@H](CC(N)=O)NC(=O)[C@H](CO)NC(=O)[C@H](Cc3ccc(O)cc3)NC(=O)[C@H](CCSC)NC(=O)[C@H](CCCNC(=N)N)NC(=O)CNC(=O)[C@H](Cc3ccccc3)NC(=O)[C@H](CCC(=O)O)NC(=O)[C@H](CC(=O)O)NC(=O)[C@H](Cc3ccccc3)NC(=O)[C@H](C(C)C)NC(=O)[C@@H]3CCCN3C(=O)[C@H](CCC(N)=O)NC(=O)[C@H](C)NC1=O)C(=O)N[C@@H](CCC(=O)O)C(=O)N[C@@H](CCSC)C(=O)N[C@@H](CCC(N)=O)C(=O)N[C@@H](CCCNC(=N)N)C(=O)N[C@@H](C)C(=O)N[C@@H](CCCNC(=N)N)C(=O)N[C@H](C(=O)N[C@@H](CC(C)C)C(=O)N[C@@H](CCCNC(=N)N)C(=O)NCC(=O)O)CSSC[C@H](N)C(=O)N1CCC[C@H]1C(=O)N[C@@H](CCC(N)=O)C(=O)N[C@@H](C(C)C)C(=O)N2 [Y9A] (H-CPQVCPAIAQPVFDEFGRMYSNSCEMQRARCLRG-OH; disulfide 1-31, 5-24)	> 1000
CC[C@H](C)[C@@H]1NC(=O)[C@H](C)NC(=O)[C@@H]2CCCN2C(=O)[C@@H]2CSSC[C@H](NC(=O)[C@H](CO)NC(=O)[C@H](CC(N)=O)NC(=O)[C@H](C)NC(=O)[C@H](Cc3ccc(O)cc3)NC(=O)[C@H](CCSC)NC(=O)[C@H](CCCNC(=N)N)NC(=O)CNC(=O)[C@H](Cc3ccccc3)NC(=O)[C@H](CCC(=O)O)NC(=O)[C@H](CC(=O)O)NC(=O)[C@H](Cc3ccccc3)NC(=O)[C@H](C(C)C)NC(=O)[C@@H]3CCCN3C(=O)[C@H](CCC(N)=O)NC(=O)[C@H](Cc3ccc(O)cc3)NC1=O)C(=O)N[C@@H](CCC(=O)O)C(=O)N[C@@H](CCSC)C(=O)N[C@@H](CCC(N)=O)C(=O)N[C@@H](CCCNC(=N)N)C(=O)N[C@@H](C)C(=O)N[C@@H](CCCNC(=N)N)C(=O)N[C@H](C(=O)N[C@@H](CC(C)C)C(=O)N[C@@H](CCCNC(=N)N)C(=O)NCC(=O)O)CSSC[C@H](N)C(=O)N1CCC[C@H]1C(=O)N[C@@H](CCC(N)=O)C(=O)N[C@@H](C(C)C)C(=O)N2 [S21A] (H-CPQVCPAIYQPVFDEFGRMYANSCEMQRARCLRG-OH; disulfide 1-31, 5-24)	0.0168
CC[C@H](C)[C@@H]1NC(=O)[C@H](C)NC(=O)[C@@H]2CCCN2C(=O)[C@@H]2CSSC[C@H](NC(=O)[C@H](CO)NC(=O)[C@H](CC(N)=O)NC(=O)[C@H](CO)NC(=O)[C@H](Cc3ccc(O)cc3)NC(=O)[C@H](CCSC)NC(=O)[C@H](CCCNC(=N)N)NC(=O)CNC(=O)[C@H](Cc3ccccc3)NC(=O)[C@H](CCC(=O)O)NC(=O)[C@H](CC(=O)O)NC(=O)[C@H](Cc3ccccc3)NC(=O)[C@H](C(C)C)NC(=O)[C@@H]3CCCN3C(=O)[C@H](C)NC(=O)[C@H](Cc3ccc(O)cc3)NC1=O)C(=O)N[C@@H](CCC(=O)O)C(=O)N[C@@H](CCSC)C(=O)N[C@@H](CCC(N)=O)C(=O)N[C@@H](CCCNC(=N)N)C(=O)N[C@@H](C)C(=O)N[C@@H](CCCNC(=N)N)C(=O)N[C@H](C(=O)N[C@@H](CC(C)C)C(=O)N[C@@H](CCCNC(=N)N)C(=O)NCC(=O)O)CSSC[C@H](N)C(=O)N1CCC[C@H]1C(=O)N[C@@H](CCC(N)=O)C(=O)N[C@@H](C(C)C)C(=O)N2 [Q10A] (H-CPQVCPAIYAPVFDEFGRMYSNSCEMQRARCLRG-OH; disulfide 1-31, 5-24)	0.0136
CC[C@H](C)[C@@H]1NC(=O)[C@H](C)NC(=O)[C@@H]2CCCN2C(=O)[C@@H]2CSSC[C@H](NC(=O)[C@H](CO)NC(=O)[C@H](CC(N)=O)NC(=O)[C@H](CO)NC(=O)[C@H](Cc3ccc(O)cc3)NC(=O)[C@H](CCSC)NC(=O)[C@H](CCCNC(=N)N)NC(=O)CNC(=O)[C@H](Cc3ccccc3)NC(=O)[C@H](CCC(=O)O)NC(=O)[C@H](CC(=O)O)NC(=O)[C@H](Cc3ccccc3)NC(=O)[C@H](C(C)C)NC(=O)[C@@H]3CCCN3C(=O)[C@H](CCC(N)=O)NC(=O)[C@H](Cc3ccc(O)cc3)NC1=O)C(=O)N[C@@H](CCC(=O)O)C(=O)N[C@@H](CCSC)C(=O)N[C@@H](CCC(N)=O)C(=O)N[C@@H](CCCNC(=N)N)C(=O)N[C@@H](C)C(=O)N[C@@H](CCCNC(=N)N)C(=O)N[C@H](C(=O)N[C@@H](CC(C)C)C(=O)N[C@@H](CCCNC(=N)N)C(=O)NCC(=O)O)CSSC[C@H](N)C(=O)N[C@@H](C)C(=O)N[C@@H](CCC(N)=O)C(=O)N[C@@H](C(C)C)C(=O)N2 [P2A] (H-CAQVCPAIYQPVFDEFGRMYSNSCEMQRARCLRG-OH; disulfide 1-31, 5-24)	0.101
